Test results reported in EPA's ToxValDB 9.5.
“And” between values parts separate entries of the source, which are not always exact repeats. Equal entries are not always repeated. Values belong to the compound of their own block, whether it stands above or below them.

Key:
Rattus norvegicus [1] = details: short-term, M
Rattus norvegicus [2] = details: for LD50 / LC50: acute
Oryctolagus sp. = details: for LD50: acute, dermal
Rattus norvegicus [3] = details: oral
Rattus norvegicus [4] = details: for LEL: uterotrophic, injection, subcutaneous, Active; for NOEL / LOEL: Hershberger, duration: 10 days, oral, gavage, Sprague-Dawley
Rattus norvegicus [5] = details: oral, M/F
[6] = short-term, duration: 28 days, gavage, M, Sprague-Dawley, Body Weight Changes: decrease + Food Consumption: decrease + Relative Organ Weight: Thyroid increase
[7] = developmental, duration: 10 days, oral, gavage, Sprague-Dawley
[8] = subchronic, duration: 30 days, oral, diet, Sprague-Dawley
[9] = chronic, duration: 6 months, inhalation, Sprague-Dawley
[10] = chronic, duration: 2 years, diet, reduced body weight gain and food consumption
[11] = active + Negative + Antiandrogenic + anti-androgenic + negative
[12] = chronic, duration: 2 years, diet, reduced body weight (males), liver cell vacuolation, cholinesterase inhibition
[13] = active + Negative + Antiandrogenic + anti-androgenic
[14] = developmental, reduced pup weanling weight

Structure (SMILES): Brc1ccccc1-c1c(Br)c(Br)c(Br)c(Br)c1Br [Hexabromobiphenyl]
- NOAEL (Rattus norvegicus [1]; duration: 10 days, oral, gavage, Sprague-Dawley, endocrine): 1 mg/kg-day

Structure (SMILES): CCCCCCCCC=O [Nonanal]
- LD50 (Rattus norvegicus [2]; oral, gavage, Wistar): > 5000 mg/kg
- LD50 (Oryctolagus sp.; albino): > 5000 mg/kg

Structure (SMILES): CCCCCN(CCCCC)C(=S)[S][Sb]([S]C(=S)N(CCCCC)CCCCC)[S]C(=S)N(CCCCC)CCCCC [Antimony diamyldithiocarbamate]
- LD50 (Rattus norvegicus [2]; oral, gavage): 16400 mg/kg
- LD50 (Oryctolagus sp.; occlusive): 16000 mg/kg

Structure (SMILES): CCCBr [1-Bromopropane]
- NOAEL (Rattus norvegicus [1]; duration: 3 weeks, inhalation, whole body, F-344, neurological): 50.3 mg/m3

- LEL (Rattus norvegicus [4]; duration: 2 days): 1 mg/day
Structure (SMILES): O=C1OC(c2ccc(O)cc2)(c2ccc(O)cc2)c2ccccc21 [Phenolphthalein]
- NOAEL (Rattus norvegicus [3]; [6]): < 200 mg/kg-day
- NOEL (Rattus norvegicus [3]; [6]): < 200 mg/kg-day
- NOEL (Rattus norvegicus [3]; subchronic, duration: 13 weeks, diet, F, Fischer 344, Body Weight Changes: decrease + Absolute Organ Weight: Liver + Relative Organ Weight: Right kidney increase, Liver increase): 800 mg/kg-day
- NOEL (Rattus norvegicus [3]; subchronic, duration: 13 weeks, diet, M/F, Fischer 344, Body Weight Changes: decrease + Absolute Organ Weight: Liver + Relative Organ Weight: Right kidney increase, Liver increase): 576 mg/kg-day

Structure (SMILES): CN1C(=O)c2ccc(Oc3ccc(C(C)(C)c4ccc(Oc5ccc6c(c5)C(=O)N(C)C6=O)cc4)cc3)cc2C1=O
- NOAEL (Rattus norvegicus [2]; [7]): > 1000 mg/kg-day
- NOAEL (Rattus norvegicus [2]; reproduction developmental, duration: 4 weeks, oral, gavage, Sprague-Dawley, generation: F0): > 1000 mg/kg-day
- NOAEL (Rattus norvegicus [2]; reproduction developmental, duration: 4 weeks, oral, gavage, Sprague-Dawley, generation: F1): > 1000 mg/kg-day
- NOAEL (Rattus norvegicus [2]; reproduction developmental, duration: 10 days, oral, gavage, Crl:CD(SD) BR): > 1000 mg/kg-day
- LOAEL (% diet) (Rattus norvegicus [2]; [8]): > 4
- NOAEL (Rattus norvegicus [2]; [8]): ≥ 2750 mg/kg-day and ≤ 3160 mg/kg-day
- NOAEL (% diet) (Rattus norvegicus [2]; [8]): 4
- NOAEC (Oryctolagus sp.; developmental, duration: 12 days, oral, gavage, New Zealand): > 1000 mg/kg-day
- NOAEL (Oryctolagus sp.; reproduction developmental, duration: 12 days, oral, gavage, F, New Zealand): > 1000 mg/kg-day
- NOAEC (Oryctolagus sp.; reproduction developmental, duration: 13 days, oral, gavage, F, New Zealand): > 1000 mg/kg-day
- NOAEC (Oryctolagus sp.; reproduction developmental, duration: 13 days, oral, gavage, New Zealand): > 1000 mg/kg-day

Structure (SMILES): Cc1ccccn1 [2-Methylpyridine]
- LC50 (Rattus norvegicus [2]; inhalation): ≥ 7620 mg/m3 and ≤ 15200 mg/m3
- LC50 (Rattus norvegicus [2]; inhalation, Sprague-Dawley): < 13200 mg/m3
- LD50 (Rattus norvegicus [2]; oral, gavage, Sprague-Dawley): 810 mg/kg and > 950 mg/kg
- LOAEL (Rattus norvegicus [2]; [9]): > 381 mg/m3
- NOAEL (Rattus norvegicus [2]; [9]): ≥ 381 mg/m3
- LD50 (Oryctolagus sp.): ≥ 252 mg/kg and ≤ 500 mg/kg
- LD50 (Oryctolagus sp.; occlusive, New Zealand): ≥ 200 mg/kg and ≤ 316 mg/kg

Structure (SMILES): CCCCCCCC=O [Octanal]
- LD50 (Oryctolagus sp.; occlusive, New Zealand): 5210 mg/kg

Structure (SMILES): CC(C)CCCCCCCOP(OCCCCCCCC(C)C)OCCCCCCCC(C)C [Isodecyl phosphite]
- LC50 (Rattus norvegicus [2]; Inhalation, Sherman Wistar): > 12.6 µg/mL
- LD50 (Rattus norvegicus [2]; oral, gavage, Sherman Wistar): > 5000 mg/kg
- NOAEL (Rattus norvegicus [2]; reproduction developmental, duration: 8 weeks, oral, gavage, Sprague-Dawley, generation: F0): ≥ 1000 mg/kg-day
- NOAEL (Rattus norvegicus [2]; reproduction developmental, duration: 8 weeks, oral, gavage, Sprague-Dawley, generation: F1): ≥ 1000 mg/kg-day
- LD50 (Oryctolagus sp.; New Zealand): > 5000 mg/kg

Structure (SMILES): CC(C)CCC(C)Nc1ccc(NC(C)CCC(C)C)cc1 (centres undefined) [N,N'-Bis(1,4-dimethylpentyl)-4-phenylenediamine]
- LC50 (Rattus norvegicus [2]; inhalation): > 400 mg/m3
- LD50 (Rattus norvegicus [2]; oral, gavage, Sprague-Dawley): 730 mg/kg
- LOAEL (Rattus norvegicus [2]; chronic, duration: 22 weeks, inhalation): 100 mg/m3
- NOAEL (Rattus norvegicus [2]; developmental, duration: 10 days, oral, gavage, Charles River CD Albino): 150 mg/kg-day
- NOAEL (Rattus norvegicus [2]; reproduction developmental, duration: 23 weeks, oral, diet, generation: F0): 30 ppm
- NOAEL (Rattus norvegicus [2]; reproduction developmental, duration: 23 weeks, oral, diet, generation: F1): 30 ppm
- NOAEL (Rattus norvegicus [2]; reproduction developmental, duration: 23 weeks, oral, diet, generation: F2): 30 ppm
- NOAEL (Rattus norvegicus [2]; reproduction developmental, duration: 10 days, oral, gavage, F, Charles River CD Albino): 25 mg/kg-day
- NOAEL (Rattus norvegicus [2]; subchronic, duration: 30 days, oral, diet, F, Sprague-Dawley): 28.8 mg/kg-day
- NOAEL (Rattus norvegicus [2]; subchronic, duration: 30 days, oral, diet, M, Sprague-Dawley): 9.6 mg/kg-day
- NOAEL (Rattus norvegicus [2]; subchronic, duration: 90 days, oral, diet, M, Sprague-Dawley): 9.6 mg/kg-day
- LD50 (Oryctolagus sp.; occlusive, New Zealand): > 3160 mg/kg

Structure (SMILES): Oc1ccc(-c2ccccc2)cc1 [4-Phenylphenol]
- NOEL (Rattus norvegicus [3]; subchronic, gavage, M, Sprague-Dawley, Body Weight Changes: Reduced gain + Food Consumption: decrease + Hematology: WBC increase, NeutrophilSegment(%) decrease, Lymphocyte(%) …): 30 mg/kg-day
- LEL (Rattus norvegicus [4]; duration: 3 days): 10 mg/kg-day

Structure (SMILES): CNC(=O)ON=C(SC)C(=O)N(C)C [Oxamyl]
- NOEL (Rattus norvegicus [4]; inactive + Negative + Negative + neither + negative): 0.5 mg/kg-day
- LEL (Rattus norvegicus [5]; [10]): 5 mg/kg-day
- NOEL (Rattus norvegicus [5]; [10]): 2.5 mg/kg-day

Structure (SMILES): COP(=S)(OC)SCN1C(=O)c2ccccc2C1=O [Phosmet]
- LOEL (Rattus norvegicus [4]; [11]): 25 mg/kg-day
- NOEL (Rattus norvegicus [4]; [11]): 20 mg/kg-day and 15 mg/kg-day
- LEL (Rattus norvegicus [5]; [12]): 20 mg/kg-day
- NOEL (Rattus norvegicus [5]; [12]): 2 mg/kg-day

Structure (SMILES): CC(C)(c1ccc(Oc2ccc3c(c2)C(=O)OC3=O)cc1)c1ccc(Oc2ccc3c(c2)C(=O)OC3=O)cc1 [4,4'-(4,4'-Isopropylidenediphenoxy)bisphthalic dianhydride]
- LD50 (Rattus norvegicus [2]; oral, gavage, Spartan): > 5000 mg/kg
- LD50 (Rattus norvegicus [2]; oral, gavage, Sprague-Dawley): > 5000 mg/kg
- NOAEL (Rattus norvegicus [2]; [7]): > 1000 mg/kg-day
- NOAEL (Rattus norvegicus [2]; reproduction developmental, oral, gavage, Sprague-Dawley): > 1000 mg/kg-day
- NOAEL (Rattus norvegicus [2]; reproduction developmental, oral, gavage, Sprague-Dawley, generation: F1): > 1000 mg/kg-day
- LOAEL (% diet) (Rattus norvegicus [2]; [8]): > 4
- NOAEL (% diet) (Rattus norvegicus [2]; [8]): 4
- LD50 (Oryctolagus sp.; New Zealand): > 2000 mg/kg
- LD50 (Oryctolagus sp.; occlusive, New Zealand): > 2000 mg/kg

Structure (SMILES): CCCCNC(=O)n1c(NC(=O)OC)nc2ccccc21 [Benomyl]
- LOEL (Rattus norvegicus [4]; [13]): 1000 mg/kg-day
- NOEL (Rattus norvegicus [4]; [13]): 300 mg/kg-day
- LEL (Rattus norvegicus [5]; [14]): 25 mg/kg-day
- NOEL (Rattus norvegicus [5]; [14]): 5 mg/kg-day
